Read-outs that look alike come from different tables or passages of the source. Where no end group is shown, it is not given here.
Key:
[1] = tested on: trypsin; details: peptide 10 mg/mL, trypsin 4 mg/mL, PBS pH 7.4, 37°C, SDS-PAGE with silver staining
Experimental: (§1) Samples (20 μL) treated with either trypsin or pepsin for different lengths of time were then mixed with SDS-PAGE loading buffer (2×), heated at 100°С for 10 min, and then analyzed with SDS-PAGE. Protein bands on the gels were visualized by silver staining.
(§2) The reaction solutions were sampled at different time points and analyzed by SDS-PAGE. […] Negative control is trypsin only.

[2] = molecular target: pepsin (Sus scrofa, UniProt P00791); details: peptide 1 mg/mL, pepsin 2 mg/mL, HCl solution pH 1.5~2.0, 37°C, SDS-PAGE with silver staining
pepsin, sequence (P00791 60-385): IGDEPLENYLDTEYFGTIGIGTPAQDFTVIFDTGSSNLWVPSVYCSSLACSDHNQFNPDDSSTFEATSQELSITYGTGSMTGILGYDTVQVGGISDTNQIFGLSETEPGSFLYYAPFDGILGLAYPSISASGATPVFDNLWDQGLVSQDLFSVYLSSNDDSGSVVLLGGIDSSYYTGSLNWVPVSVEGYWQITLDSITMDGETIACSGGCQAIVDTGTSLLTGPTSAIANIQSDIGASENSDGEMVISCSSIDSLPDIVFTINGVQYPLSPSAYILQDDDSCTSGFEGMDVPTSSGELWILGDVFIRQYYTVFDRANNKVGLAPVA
Experimental: as §1, §2

[3] = tested on: Mouse insulinoma cells (MIN6); details: 48 h, CCK-8, OD450
Experimental: Mouse insulinoma cells (MIN6) (iCell Bioscience, Inc. Shanghai, China) were cultured in a 25 cm^2 cell culture flasks and then seeded into 96-well microplates at a density of 6.0×10^4 cells per well for the cell proliferation assay. […] After 48 h of incubation, 10 μL CCK-8 solution (cell counting kit, Dojindo China Co., Ltd. Shanghai, China) was gently mixed into the culture and the culture was further incubated for 1 to 4 hours. A microplate reader (Bio-Rad, USA) was used to measure cell viability at a 450 nm wavelength (OD450). The cell viability ratio (CRV) was calculated as (A-A0)/A0 × 100% (where A was the absorbance of the treated cell culture and A0 was the OD450 value of a blank (RPMI 1640 medium only)).
Fig 3 Mouse pancreatic β cell proliferation (A), RT-qPCR analysis of gene expression (B), and insulin secretion (C). MIN6 cells were seeded into flat-bottomed 96-well microtiter plates at a density of 6.0×10^4 cells per well. […] The control was cell cultures treated with DPBS only. […] The controls were cells incubated with just DPBS in the presence of 10mM glucose. Cell culture supernatants were collected and insulin concentration determined using a mouse insulin ELISA kit (JiNingShiYe Ltd. Shanghai, China). Data shown represent the mean ±SD (n = 6). Different letters or (*) indicate significant difference at p<0.05.

[4] = tested on: pancreatin; details: peptide 2.5 mg/mL, pancreatin 1.0 mg/mL, PBS pH 7.4, 37°C, SDS-PAGE with silver staining

Row | Compound | State after 8 h incubation with trypsin ([1]; 8 h) | Time to degradation by pepsin [2] [min] | Cell viability ratio (CRV) ([3]; 0.3 μM peptide) [%] | Cell viability ratio (CRV) ([3]; 3 μM peptide) [%] | Cell viability ratio (CRV) ([3]; 15 μM peptide) [%] | State after 5 min with pancreatin [4] | State after 15 min in pancreatin [4] | Resistance to trypsin cleavage relative to native GLP-1 [1] | Time resistant to trypsin cleavage [1] | Resistance to pancreatin cleavage relative to native GLP-1 [4]
1 | CC[C@H](C)[C@H](NC(=O)[C@H](Cc1ccccc1)NC(=O)[C@H](CCC(=O)O)NC(=O)[C@H](CCCCN)NC(=O)[C@H](C)NC(=O)[C@H](C)NC(=O)[C@H](CCC(N)=O)NC(=O)CNC(=O)[C@H](CCC(=O)O)NC(=O)[C@H](CC(C)C)NC(=O)[C@H](Cc1ccc(O)cc1)NC(=O)[C@H](CO)NC(=O)[C@H](CO)NC(=O)[C@@H](NC(=O)[C@H](CC(=O)O)NC(=O)[C@H](CO)NC(=O)[C@@H](NC(=O)[C@H](Cc1ccccc1)NC(=O)[C@@H](NC(=O)CNC(=O)[C@H](CCC(=O)O)NC(=O)[C@H](C)NC(=O)[C@@H](N)Cc1c[nH]cn1)[C@@H](C)O)[C@@H](C)O)C(C)C)C(=O)N[C@@H](C)C(=O)N[C@@H](Cc1c[nH]c2ccccc12)C(=O)N[C@@H](CC(C)C)C(=O)N[C@H](C(=O)N[C@@H](CCCCN)C(=O)NCC(=O)N[C@@H](CCCNC(=N)N)C(N)=O)C(C)C [GLP-1, reference compound] | completely degraded | ≤ 10 | 15.65 | 23.65 | 58.56 | quickly degraded | completely destroyed |  |  | 
2 | HGEGTFTSDVSSYLEGQAAQEFIAWLVDGR-NH2 [mGLP-1] |  | ≤ 10 | 10.58 | 20.58 | 60.26 | quickly degraded | faint mGLP-1 was still detectable | more resistant | up to 8 hours | more resistant
